Where two headings read alike, the source gives them in different places.
Assays:
[1] = target: GSK3α (GST-full length GSK3α) (Homo sapiens (Human), UniProt P49840); test: GSK3α TR-FRET kinase assay; type: biochemical
Summary of the method: (§1)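 IC50s came from the normalized 665/615 TR-FRET ratio after Tb-anti-pSer641 antibody and streptavidin-d2 detection of phosphorylated biotin-glycogen synthase peptide (200 nM). ATP was 4 μM for GSK3α, 2 μM for GSK3b, or 1 mM; 1 nM enzyme, 100 min, ambient, pH 7.5, after 30-min compound preincubation.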

[2] = target: GSK3b (GST-full length GSK3b) (Homo sapiens (Human), UniProt P49841); test: GSK3b TR-FRET kinase assay; type: biochemical
Summary of the method: as §1

[3] = 1 nM GSK3α, 4 μM ATP, 30 minute preincubation, Table 16, read-out: GSK3-A TR-FRET BIOCHEMICAL (TR-FRET)
[4] = 1 nM GSK3b, 2 μM ATP, 30 minute preincubation, Table 16, read-out: GSK3-B TR-FRET BIOCHEMICAL (TR-FRET)
[5] = GSK3-A (TR-FRET 1 mM ATP), GMean, IC50, 1 mM ATP, geometric mean
[6] = GSK3-B (TR-FRET 1 mM ATP), GMean, IC50, 1 mM ATP, geometric mean
[7] = 1 nM GSK3α, 4 μM ATP, 30 minute preincubation, read-out: GSK3-A TR-FRET BIOCHEMICAL (TR-FRET), IC50
[8] = 1 nM GSK3b, 2 μM ATP, 30 minute preincubation, read-out: GSK3-B TR-FRET BIOCHEMICAL (TR-FRET), IC50

Sequence of GSK3α (GST-full length GSK3α) (P49840 whole entry): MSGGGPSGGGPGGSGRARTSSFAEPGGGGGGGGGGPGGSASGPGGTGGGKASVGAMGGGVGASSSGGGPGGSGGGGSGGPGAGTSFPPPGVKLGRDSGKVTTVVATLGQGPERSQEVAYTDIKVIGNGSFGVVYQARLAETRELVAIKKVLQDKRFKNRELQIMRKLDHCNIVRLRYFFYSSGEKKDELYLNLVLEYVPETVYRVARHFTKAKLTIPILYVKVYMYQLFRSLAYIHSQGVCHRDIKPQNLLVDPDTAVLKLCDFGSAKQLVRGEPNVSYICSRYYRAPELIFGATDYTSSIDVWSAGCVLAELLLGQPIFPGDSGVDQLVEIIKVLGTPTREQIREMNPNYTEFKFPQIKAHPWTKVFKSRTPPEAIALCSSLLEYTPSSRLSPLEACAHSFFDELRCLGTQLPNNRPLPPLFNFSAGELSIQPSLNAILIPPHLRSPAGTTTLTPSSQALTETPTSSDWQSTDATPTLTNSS
Sequence of GSK3b (GST-full length GSK3b) (P49841 whole entry): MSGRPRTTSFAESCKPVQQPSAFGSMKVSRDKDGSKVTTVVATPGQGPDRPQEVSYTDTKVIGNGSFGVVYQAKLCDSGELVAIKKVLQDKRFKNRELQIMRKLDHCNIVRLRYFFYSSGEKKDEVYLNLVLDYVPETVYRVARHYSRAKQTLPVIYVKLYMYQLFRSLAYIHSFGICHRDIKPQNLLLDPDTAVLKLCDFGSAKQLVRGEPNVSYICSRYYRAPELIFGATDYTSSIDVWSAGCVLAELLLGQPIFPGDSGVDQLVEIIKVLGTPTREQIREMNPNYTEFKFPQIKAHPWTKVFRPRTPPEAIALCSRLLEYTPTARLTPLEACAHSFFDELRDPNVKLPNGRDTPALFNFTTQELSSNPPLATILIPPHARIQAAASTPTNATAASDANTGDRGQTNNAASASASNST

Structure (SMILES) | IC50 [1, 3] | IC50 [2, 4] | IC50 [1, 5] | IC50 [2, 6] | IC50 [1, 7] | IC50 [2, 8]
COc1ccc(C)c(S(=O)(=O)N2CCC3(CC2)C2=C(CC(C)(C)CC2=O)Nc2n[nH]cc23)c1 [Compound 947245] | ≤ 0.1 µM | 0.1 to 1 µM | – | – | – | –
CC1(C)CC(=O)C2=C(C1)Nc1n[nH]cc1C21CCN(S(=O)(=O)c2ccc(OC(F)F)cc2)CC1 [Compound 947246] | ≤ 0.1 µM | ≤ 0.1 µM | ≤ 0.1 µM | 0.1 to 1 µM | – | –
CN(C)C(=O)c1cccc(S(=O)(=O)N2CCC3(CC2)C2=C(CC(C)(C)CC2=O)Nc2n[nH]cc23)c1 [Compound 947247] | ≤ 0.1 µM | ≤ 0.1 µM | – | – | – | –
CC1(C)CC(=O)C2=C(C1)Nc1n[nH]cc1C21CCN(S(=O)(=O)c2ccc(C(F)F)cc2)CC1 [Compound 947248] | ≤ 0.1 µM | ≤ 0.1 µM | – | – | – | –
CC1(C)CC(=O)C2=C(C1)Nc1n[nH]cc1C21CCN(S(=O)(=O)c2cccc(Cl)c2Cl)CC1 [Compound 947249] | ≤ 0.1 µM | ≤ 0.1 µM | – | – | – | –
COCc1ccc(S(=O)(=O)N2CCC3(CC2)C2=C(CC(C)(C)CC2=O)Nc2n[nH]cc23)cc1 [Compound 947250] | ≤ 0.1 µM | ≤ 0.1 µM | – | – | – | –
CC1(C)CC(=O)C2=C(C1)Nc1n[nH]cc1C21CCN(S(=O)(=O)c2ccc(F)cn2)CC1 [Compound 947251] | 0.1 to 1 µM | 0.1 to 1 µM | – | – | – | –
CCc1ncc(S(=O)(=O)N2CCC3(CC2)C2=C(CC(C)(C)CC2=O)Nc2n[nH]cc23)s1 [Compound 947252] | ≤ 0.1 µM | ≤ 0.1 µM | – | – | – | –
CCOc1cccc(S(=O)(=O)N2CCC3(CC2)C2=C(CC(C)(C)CC2=O)Nc2n[nH]cc23)c1 [Compound 947253] | ≤ 0.1 µM | ≤ 0.1 µM | 0.1 to 1 µM | 1 to 5 µM | – | –
CC1(C)CC(=O)C2=C(C1)Nc1n[nH]cc1C21CCN(S(=O)(=O)c2cccc(C#N)c2)CC1 [Compound 947254] | ≤ 0.1 µM | ≤ 0.1 µM | ≤ 0.1 µM | 0.1 to 1 µM | – | –
COc1ccc(S(=O)(=O)N2CCC3(CC2)C2=C(CC(C)(C)CC2=O)Nc2n[nH]cc23)c(F)c1 [Compound 947255] | – | – | ≤ 0.1 µM | 0.1 to 1 µM | ≤ 0.1 µM | ≤ 0.1 µM
CC1(C)CC(=O)C2=C(C1)Nc1n[nH]cc1C21CCN(S(=O)(=O)c2ccc(C(F)(F)F)cc2)CC1 [Compound 947256] | ≤ 0.1 µM | ≤ 0.1 µM | – | – | – | –
Cc1nn(C)c(C)c1S(=O)(=O)N1CCC2(CC1)C1=C(CC(C)(C)CC1=O)Nc1n[nH]cc12 [Compound 947257] | 0.1 to 1 µM | 1 to 5 µM | – | – | – | –
CC(C)n1ccc(S(=O)(=O)N2CCC3(CC2)C2=C(CC(C)(C)CC2=O)Nc2n[nH]cc23)n1 [Compound 947258] | ≤ 0.1 µM | ≤ 0.1 µM | – | – | – | –
Cc1nc(C)c(S(=O)(=O)N2CCC3(CC2)C2=C(CC(C)(C)CC2=O)Nc2n[nH]cc23)s1 [Compound 947259] | ≤ 0.1 µM | ≤ 0.1 µM | – | – | – | –
COc1ncccc1S(=O)(=O)N1CCC2(CC1)C1=C(CC(C)(C)CC1=O)Nc1n[nH]cc12 [Compound 947260] | – | – | ≤ 0.1 µM | 0.1 to 1 µM | ≤ 0.1 µM | ≤ 0.1 µM
Cc1cccc(S(=O)(=O)N2CCC3(CC2)C2=C(CC(C)(C)CC2=O)Nc2n[nH]cc23)c1 [Compound 947261] | ≤ 0.1 µM | ≤ 0.1 µM | – | – | – | –
CC1(C)CC(=O)C2=C(C1)Nc1n[nH]cc1C21CCN(S(=O)(=O)c2cc(F)ccn2)CC1 [Compound 947262] | 0.1 to 1 µM | 0.1 to 1 µM | – | – | – | –
COc1cc(S(=O)(=O)N2CCC3(CC2)C2=C(CC(C)(C)CC2=O)Nc2n[nH]cc23)ccc1F [Compound 947263] | ≤ 0.1 µM | ≤ 0.1 µM | 0.1 to 1 µM | 1 to 5 µM | – | –
CC1(C)CC(=O)C2=C(C1)Nc1n[nH]cc1C21CCN(S(=O)(=O)c2cccc(C(F)F)c2)CC1 [Compound 947264] | – | – | ≤ 0.1 µM | 0.1 to 1 µM | ≤ 0.1 µM | ≤ 0.1 µM
CC1(C)CC(=O)C2=C(C1)Nc1n[nH]cc1C21COC2(CN(C(=O)C3CCC(F)(F)C3)C2)C1 (centres unmarked) [Compound 947265] | – | – | – | – | ≤ 0.1 µM | 0.1 to 1 µM
CC1CC(C(=O)N2CC3(C2)CC2(CO3)C3=C(CC(C)(C)CC3=O)Nc3n[nH]cc32)C1 (centres unmarked) [Compound 947266] | – | – | – | – | ≤ 0.1 µM | ≤ 0.1 µM
CC1(C)CC(=O)C2=C(C1)Nc1n[nH]cc1C21COC2(CN(C(=O)C3CCC(F)CC3)C2)C1 (centres unmarked) [Compound 947267] | – | – | – | – | ≤ 0.1 µM | 0.1 to 1 µM
CC1CCC(C(=O)N2CC3(C2)CC2(CO3)C3=C(CC(C)(C)CC3=O)Nc3n[nH]cc32)C1 (centres unmarked) [Compound 947268] | – | – | – | – | ≤ 0.1 µM | ≤ 0.1 µM
